Results on 18 molecules are retold here after patent publication US12161722B2, “Bifunctional heterocyclic compound having BTK degradation function via ubiquitin proteasome pathway, and use thereof” (KOREA RESEARCH INSTITUTE OF CHEMICAL TECHNOLOGY, priority 2021, dated 2024).

T1 sequence (Q06187 whole entry): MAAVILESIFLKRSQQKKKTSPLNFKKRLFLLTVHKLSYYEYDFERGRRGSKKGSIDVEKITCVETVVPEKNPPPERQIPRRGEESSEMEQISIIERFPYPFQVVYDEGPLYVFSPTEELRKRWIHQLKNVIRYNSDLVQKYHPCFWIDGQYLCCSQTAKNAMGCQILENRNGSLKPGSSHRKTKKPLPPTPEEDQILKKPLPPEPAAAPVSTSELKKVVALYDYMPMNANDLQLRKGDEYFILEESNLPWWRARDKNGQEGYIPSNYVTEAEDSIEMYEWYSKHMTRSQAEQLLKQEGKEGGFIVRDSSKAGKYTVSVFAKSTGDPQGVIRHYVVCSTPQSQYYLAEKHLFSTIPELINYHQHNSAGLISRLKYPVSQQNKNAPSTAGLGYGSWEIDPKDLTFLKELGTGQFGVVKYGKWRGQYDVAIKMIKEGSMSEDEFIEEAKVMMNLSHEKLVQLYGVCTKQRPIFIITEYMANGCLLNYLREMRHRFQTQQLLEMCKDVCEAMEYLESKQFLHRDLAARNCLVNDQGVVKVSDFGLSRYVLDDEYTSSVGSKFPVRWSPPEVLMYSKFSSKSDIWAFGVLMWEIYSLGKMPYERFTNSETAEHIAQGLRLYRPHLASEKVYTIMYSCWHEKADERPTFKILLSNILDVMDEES

The assay concerns the target T1, WT BTK protein (Homo sapiens, UniProt Q06187).
T1 construct: measured for intracellular BTK protein levels by Western blotting; endogenous in cells; host or cells: TMD-8 or RAMOS cells
Put plainly: BTK protein degradation assay (Western blotting), WT BTK. The format is cell-based. As to conditions: concentration range accounting for 50% degradation of WT BTK protein, TMD-8 or RAMOS cells, 24 hours. In outline:
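TMD-8 cells (1×10^6 cells/mL) treated 24 h with compound serial dilutions, then lysed in RIPA. Equal protein loads analysed by Western blot for BTK with GAPDH/β-actin as loading controls; activity binned by concentration giving 50% WT BTK degradation.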
On to `Cc1cccc(C)c1Nc1nn(C)c2nc(Nc3ccc4c(c3)CN(C3CCN(CC5CN(c6ccc7c(c6)C(=O)N(C6CCC(=O)NC6=O)C7=O)C5)CC3)CC4)ncc12` (stereo not drawn) [Compound 138, 5-(3-((4-(7-((3-((2,6-Dimethylphenyl)amino)-1-methyl-1H-pyrazolo[3,4-d]pyrimidin-6-yl)amino)-3,4-dihydroisoquinolin-2 (1H)-yl)piperidin-1-yl)methyl)azetidin-1-yl)-2-(2,6-dioxopiperidin-3-yl)isoindoline-1,3-dione], for which the DC50 fell in the range of 0.1 to 10 nM. With `Cc1cccc(C)c1Nc1nn(C)c2nc(Nc3ccc4c(c3)CN(C3CCN(CC5CCN(c6ccc7c(c6)C(=O)N(C6CCC(=O)NC6=O)C7=O)CC5)CC3)CC4)ncc12` (stereo not drawn) [Compound 139, 5-(4-((4-(7-((3-((2,6-Dimethylphenyl)amino)-1-methyl-1H-pyrazolo[3,4-d]pyrimidin-6-yl)amino)-3,4-dihydroisoquinolin-2 (1H)-yl)piperidin-1-yl)methyl)piperidin-1-yl)-2-(2,6-dioxopiperidin-3-yl)isoindoline-1,3-dione], the DC50 lay within 0.1 to 10 nM.

Regarding `Cc1cccc(C)c1Nc1nn(C)c2nc(Nc3ccc4c(c3)CN(C3CCN(C[C@H]5CCCN(c6ccc7c(c6)C(=O)N(C6CCC(=O)NC6=O)C7=O)C5)CC3)CC4)ncc12` (stereo partly drawn) [Compound 140, 5-((R)-3-((4-(7-((3-((2,6-dimethylphenyl)amino)-1-methyl-1H-pyrazolo[3,4-d]pyrimidin-6-yl)amino)-3,4-dihydroisoquinolin-2 (1H)-yl)piperidin-1-yl)methyl)piperidin-1-yl)-2-(2,6-dioxopiperidin-3-yl)isoindoline-1,3-dione], the DC50 fell in the range of 0.1 to 10 nM. The value for `Cc1cccc(C)c1Nc1nn(C)c2nc(Nc3ccc4c(c3)CN(C3CCN(C[C@@H]5CCCN(c6ccc7c(c6)C(=O)N(C6CCC(=O)NC6=O)C7=O)C5)CC3)CC4)ncc12` (stereo partly drawn) [Compound 141, 5-((S)-3-((4-(7-((3-((2,6-dimethylphenyl)amino)-1-methyl-1H-pyrazolo[3,4-d]pyrimidin-6-yl)amino)-3,4-dihydroisoquinolin-2 (1H)-yl)piperidin-1-yl)methyl)piperidin-1-yl)-2-(2,6-dioxopiperidin-3-yl)isoindoline-1,3-dione] was 0.1 to 10 nM; that for `Cc1cccc(C)c1Nc1nn(C)c2nc(Nc3ccc4c(c3)CN(C3CCN(C[C@H]5CCN(c6ccc7c(c6)C(=O)N(C6CCC(=O)NC6=O)C7=O)C5)CC3)CC4)ncc12` (stereo partly drawn) [Compound 142, 5-((R)-3-((4-(7-((3-((2,6-dimethylphenyl)amino)-1-methyl-1H-pyrazolo[3,4-d]pyrimidin-6-yl)amino)-3,4-dihydroisoquinolin-2 (1H)-yl)piperidin-1-yl)methyl)pyrrolidin-1-yl)-2-(2,6-dioxopiperidin-3-yl)isoindoline-1,3-dione] was 0.1 to 10 nM; that for `Cc1cccc(C)c1Nc1nn(C)c2nc(Nc3ccc4c(c3)CN(C3CCN(C[C@@H]5CCN(c6ccc7c(c6)C(=O)N(C6CCC(=O)NC6=O)C7=O)C5)CC3)CC4)ncc12` (stereo partly drawn) [Compound 143, 5-((S)-3-((4-(7-((3-((2,6-dimethylphenyl)amino)-1-methyl-1H-pyrazolo[3,4-d]pyrimidin-6-yl)amino)-3,4-dihydroisoquinolin-2 (1H)-yl)piperidin-1-yl)methyl)pyrrolidin-1-yl)-2-(2,6-dioxopiperidin-3-yl)isoindoline-1,3-dione] was 0.1 to 10 nM. Turning to `Cc1cccc(C)c1Nc1nn(C)c2nc(Nc3ccc4c(c3)CN(C[C@@H]3CCN(c5ccc6c(c5)C(=O)N(C5CCC(=O)NC5=O)C6=O)C3)CC4)ncc12` (stereo partly drawn) [Compound 145, 5-((S)-3-((7-((3-((2,6-Dimethylphenyl)amino)-1-methyl-1H-pyrazolo[3,4-d]pyrimidin-6-yl)amino)-3,4-dihydroisoquinolin-2 (1H)-yl)methyl)pyrrolidin-1-yl)-2-(2,6-dioxopiperidin-3-yl)isoindoline-1,3-dione], the DC50 lay in the range of 0.1 to 10 nM. The value for `Cc1cccc(C)c1Nc1nn(C)c2nc(Nc3ccc4c(c3)CN(CCC3CCN(c5ccc6c(c5)C(=O)N(C5CCC(=O)NC5=O)C6=O)CC3)CC4)ncc12` (stereo not drawn) [Compound 146, 5-(4-(2-(7-((3-((2,6-Dimethylphenyl)amino)-1-methyl-1H-pyrazolo[3,4-d]pyrimidin-6-yl)amino)-3,4-dihydroisoquinolin-2 (1H)-yl)ethyl)piperidin-1-yl)-2-(2,6-dioxopiperidin-3-yl)isoindoline-1,3-dione] was 0.1 to 10 nM; that for `Cc1cccc(C)c1Nc1nn(C)c2nc(Nc3ccc4c(c3)CN(CC3CCN(C5CN(c6ccc7c(c6)C(=O)N(C6CCC(=O)NC6=O)C7=O)C5)CC3)CC4)ncc12` (stereo not drawn) [Compound 147, 5-(3-(4-((7-((3-((2,6-Dimethylphenyl)amino)-1-methyl-1H-pyrazolo[3,4-d]pyrimidin-6-yl)amino)-3,4-dihydroisoquinolin-2 (1H)-yl)methyl)piperidin-1-yl)azetidin-1-yl)-2-(2,6-dioxopiperidin-3-yl)isoindoline-1,3-dione] was 0.1 to 10 nM. The value for `Cc1cccc(C)c1Nc1nn(C)c2nc(Nc3ccc4c(c3)CN(C[C@@H]3[C@H]5CN(c6ccc7c(c6)C(=O)N(C6CCC(=O)NC6=O)C7=O)C[C@@H]35)CC4)ncc12` (stereo partly drawn) [Compound 148, 5-((1R,5S,6S)-6-((7-((3-((2,6-Dimethylphenyl)amino)-1-methyl-1H-pyrazolo[3,4-d]pyrimidin-6-yl)amino)-3,4-dihydroisoquinolin-2 (1H)-yl)methyl)-3-azabicyclo[3.1.0]hexan-3-yl)-2-(2,6-dioxopiperidin-3-yl)isoindoline-1,3-dione] was 0.1 to 10 nM; that for `Cc1cccc(C)c1Nc1nn(C)c2nc(Nc3ccc4c(c3)CN(C3CN(C[C@H]5CCN(c6ccc7c(c6)C(=O)N(C6CCC(=O)NC6=O)C7=O)C5)C3)CC4)ncc12` (stereo partly drawn) [Compound 150, 5-((R)-3-((3-(7-((3-((2,6-Dimethylphenyl)amino)-1-methyl-1H-pyrazolo[3,4-d]pyrimidin-6-yl)amino)-3,4-dihydroisoquinolin-2 (1H)-yl)azetidin-1-yl)methyl)pyrrolidin-1-yl)-2-(2,6-dioxopiperidin-3-yl)isoindoline-1,3-dione] was 0.1 to 10 nM; that for `Cc1cccc(C)c1Nc1nn(C)c2nc(Nc3ccc4c(c3)CN(C3CN(C[C@@H]5CCN(c6ccc7c(c6)C(=O)N(C6CCC(=O)NC6=O)C7=O)C5)C3)CC4)ncc12` (stereo partly drawn) [Compound 151, 5-((S)-3-((3-(7-((3-((2,6-Dimethylphenyl)amino)-1-methyl-1H-pyrazolo[3,4-d]pyrimidin-6-yl)amino)-3,4-dihydroisoquinolin-2 (1H)-yl)azetidin-1-yl)methyl)pyrrolidin-1-yl)-2-(2,6-dioxopiperidin-3-yl)isoindoline-1,3-dione] was 0.1 to 10 nM. The value for `Cc1cccc(C)c1Nc1nn(C)c2nc(Nc3ccc4c(c3)CN(C3CN(CC5CN(c6ccc7c(c6)C(=O)N(C6CCC(=O)NC6=O)C7=O)C5)C3)CC4)ncc12` (stereo not drawn) [Compound 152, 5-(3-((3-(7-((3-((2,6-Dimethylphenyl)amino)-1-methyl-TH-pyrazolo[3,4-d]pyrimidin-6-yl)amino)-3,4-dihydroisoquinolin-2 (1H)-yl)azetidin-1-yl)methyl)azetidin-1-yl)-2-(2,6-dioxopiperidin-3-yl)isoindoline-1,3-dione] was 0.1 to 10 nM. Regarding `Cc1cccc(C)c1Nc1nn(C)c2nc(Nc3ccc4c(c3)CN(C3CN(C[C@@H]5[C@H]6CN(c7ccc8c(c7)C(=O)N(C7CCC(=O)NC7=O)C8=O)C[C@@H]56)C3)CC4)ncc12` (stereo partly drawn) [Compound 153, 5-((1R,5S,6S)-6-((3-(7-((3-((2,6-Dimethylphenyl)amino)-1-methyl-1H-pyrazolo[3,4-d]pyrimidin-6-yl)amino)-3,4-dihydroisoquinolin-2 (1H)-yl)azetidin-1-yl)methyl)-3-azabicyclo[3.1.0]hexan-3-yl)-2-(2,6-dioxopiperidin-3-yl)isoindoline-1,3-dione], the DC50 is 0.1 to 10 nM.

For `Cc1cccc(C)c1Nc1nn(C)c2nc(Nc3ccc(N4CCN(C[C@H]5CCN(c6ccc7c(c6)C(=O)N(C6CCC(=O)NC6=O)C7=O)C5)CC4)nc3)ncc12` (stereo partly drawn) [Compound 154, 5-((R)-3-((4-(5-((3-((2,6-Dimethylphenyl)amino)-1-methyl-1H-pyrazolo[3,4-d]pyrimidin-6-yl)amino)pyridin-2-yl)piperazin-1-yl)methyl)pyrrolidin-1-yl)-2-(2,6-dioxopiperidin-3-yl)isoindoline-1,3-dione], the DC50 fell in the range of 0.1 to 10 nM. For `Cc1cccc(C)c1Nc1nn(C)c2nc(Nc3ccc(N4CCN(C[C@@H]5CCN(c6ccc7c(c6)C(=O)N(C6CCC(=O)NC6=O)C7=O)C5)CC4)nc3)ncc12` (stereo partly drawn) [Compound 155, 5-((S)-3-((4-(5-((3-((2,6-dimethylphenyl)amino)-1-methyl-1H-pyrazolo[3,4-d]pyrimidin-6-yl)amino)pyridin-2-yl)piperazin-1-yl)methyl)pyrrolidin-1-yl)-2-(2,6-dioxopiperidin-3-yl)isoindoline-1,3-dione], the half-maximal degradation concentration (DC50) lay in the range of 0.1 to 10 nM. The value for `Cc1cccc(C)c1Nc1nn(C)c2nc(Nc3ccc(N4CCN(C5CCN(c6ccc7c(c6)C(=O)N(C6CCC(=O)NC6=O)C7=O)CC5)CC4)nc3)ncc12` (stereo not drawn) [Compound 156, 5-(4-(4-(5-((3-((2,6-dimethylphenyl)amino)-1-methyl-1H-pyrazolo[3,4-d]pyrimidin-6-yl)amino)pyridin-2-yl)piperazin-1-yl)piperidin-1-yl)-2-(2,6-dioxopiperidin-3-yl)isoindoline-1,3-dione] was 0.1 to 10 nM; that for `Cc1cccc(C)c1Nc1nn(C)c2nc(Nc3ccc(N4CCN(CCC5CCN(c6ccc7c(c6)C(=O)N(C6CCC(=O)NC6=O)C7=O)CC5)CC4)nc3)ncc12` (stereo not drawn) [Compound 157, 5-(4-(2-(4-(5-((3-((2,6-dimethylphenyl)amino)-1-methyl-1H-pyrazolo[3,4-d]pyrimidin-6-yl)amino)pyridin-2-yl)piperazin-1-yl)ethyl)piperidin-1-yl)-2-(2,6-dioxopiperidin-3-yl)isoindoline-1,3-dione] was 0.1 to 10 nM.
